Laboratory results: patent US8536343B2, “Arylamidine derivative, salt thereof and antifungal agent containing those” (Toyama Chemical Co., Ltd., priority 2005, dated 2013)

Experiments:
[1] = Repeated intravenous dose toxicity study in mice (plasma AST, ALT); assay type: in vivo; settings: ICR male mice, i.v. once daily for 3 days (25 mg/kg or 6.25 mg/kg), day 1 after completion; relative to saline control
Method: As Test Compounds, the compound of Example 3, Comparative Compound 2 and Comparative Compound 3 were used.
A repeated intravenous dose toxicity study was conducted using ICR strain male mice (6 week-old, 5 mice/group). The administration solutions were prepared by adding 3-fold molar amount of hydrochloric acid to the respective Test Compounds, and further adding a sterile physiological saline solution. The compounds of Example 3 and Comparative Compound 2, respectively at 25 mg/kg, and Comparative Compound 1 at 6.25 mg/kg were administered into the tail vein once daily for 3 days. To the control group, a sterile physiological saline solution was administered.
On day 1 after the completion of the administration, each mouse was etherized. Blood samples were taken from the abdominal vein using an injection syringe containing heparin as an anticoagulant (Novo-Heparin 1,000 units for injection, Aventis Pharma Ltd.), and the samples were centrifuged (3,300 rpm, 4° C., 10 min; Kubota Model 5900) to obtain the plasma. The blood biochemical tests with respect to aspartate aminotransferase (AST) and alanine aminotransferase (ALT) for the samples were conducted according to the JSCC consensus measuring method. The values for the Test Compounds and Comparative Compounds were calculated based on the values for the control (administration of a sterile physiological saline solution) as 100.

[2] = Acute toxicity study in mice (oral administration); assay type: in vivo; settings: male mice, 1000 mg/kg single oral dose
Method: A 100 mg/mL suspension of the compound of Example 3 was prepared with 0.1 mol/L hydrochloric acid. The Test Compound solution was orally administered to male mice (6 week-old, 2 mice/group) at 10 mL/kg (1000 mg/kg body weight) and the mice were observed until day 2 after administration.

human CYP3A4 = target: T1, human CYP3A4 (Homo sapiens, UniProt P08684); assay: Inhibitory effect on CYP3A4; assay type: in vitro ADME; settings: microsome from insect cells expressing human CYP3A4, dibenzylfluorescein, 37° C. 15 min, 72 to 0.0329 μmol/L
T1 construct: host or cells: insect cells (microsomes)
T1 sequence (P08684 whole entry): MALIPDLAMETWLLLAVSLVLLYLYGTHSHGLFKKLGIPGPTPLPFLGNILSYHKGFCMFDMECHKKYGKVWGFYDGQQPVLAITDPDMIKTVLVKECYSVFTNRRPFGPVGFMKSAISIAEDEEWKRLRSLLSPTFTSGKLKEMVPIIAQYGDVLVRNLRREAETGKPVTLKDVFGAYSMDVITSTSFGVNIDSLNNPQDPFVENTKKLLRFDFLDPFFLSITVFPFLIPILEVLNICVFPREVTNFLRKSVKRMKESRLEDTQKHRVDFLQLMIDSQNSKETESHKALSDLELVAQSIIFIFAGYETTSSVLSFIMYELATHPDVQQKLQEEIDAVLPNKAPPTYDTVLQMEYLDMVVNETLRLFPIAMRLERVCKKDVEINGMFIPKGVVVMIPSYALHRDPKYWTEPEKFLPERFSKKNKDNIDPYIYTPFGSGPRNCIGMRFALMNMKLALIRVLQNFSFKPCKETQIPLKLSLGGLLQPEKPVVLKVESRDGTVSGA
Method: Inhibitory effects of the compound of Example 3 and Comparative Compound 1 on human hepatic drug-metabolizing enzyme CYP3A4 were compared. A microsome prepared from insect cells expressing human CYP3A4 was used. Dibenzylfluorescein was used as a substrate. The reaction was conducted in a phosphate buffer solution (100 mmol/L, pH 7.4) including final concentrations of 2.5 nmol/L for the enzyme, 1.0 μmol/L for the substrate, 1.55 mmol/L for nicotinamide adenine dinucleotide phosphate oxidized form (NADP+), 3.3 mmol/L for glucose-6-phosphate, 3.3 mmol/L for magnesium chloride and 0.4 Units/mL for glucose-6-phosphate dehydrogenase (G6PDH). The concentrations of the respective compounds in the reaction solution were prepared in a 3-fold dilution series with a final concentration range of 72 to 0.0329 μmol/L. The reaction solutions were incubated at 37° C. for 15 min. Then the reaction was terminated by a 2 mol/L sodium hydroxide aqueous solution, and the solution was further incubated at 37° C. for 2 hours. The enzyme activity was determined by measuring fluorescence with wavelength of 535 nm using excitation wavelength of 485 nm. The inhibitory effect was expressed as IC50. Clotrimazole was used as a positive control.

## CCCCOC(=O)N=C(N)c1ccc(OCCCC2CCN(CCCOc3ccc(C(N)=NC(=O)OCCCC)cc3)CC2)cc1 [Example 3, 4-{3-[4-(3-{4-[amino(butoxycarbonylimino)methyl]phenoxy}propyl)-1-piperidinyl]propoxy}-N′-(butoxycarbonyl)benzamidine]
[1]
  ALT (alanine aminotransferase) in plasma: No abnormality
  AST (aspartate aminotransferase) in plasma: No abnormality
[2]
  survival until day 2 after administration: all mice survived
Human CYP3A4
  IC50: 45.4 µM
